ChEMBL document CHEMBL3232785, “Basic quinolinonyl diketo acid derivatives as inhibitors of HIV integrase and their activity against RNase H function of reverse transcriptase” (J Med Chem, 2014)
Active and inactive are the calls of the source. The calls are words filed in the database; no cut-off is given here.

Key:
[1] = molecular target: T1, Human immunodeficiency virus type 1 integrase (Human immunodeficiency virus 1, UniProt Q7ZJM1); assay: Inhibition of HIV1 integrase strand transfer activity by gel-based assay
T1 sequence (Q7ZJM1 whole entry): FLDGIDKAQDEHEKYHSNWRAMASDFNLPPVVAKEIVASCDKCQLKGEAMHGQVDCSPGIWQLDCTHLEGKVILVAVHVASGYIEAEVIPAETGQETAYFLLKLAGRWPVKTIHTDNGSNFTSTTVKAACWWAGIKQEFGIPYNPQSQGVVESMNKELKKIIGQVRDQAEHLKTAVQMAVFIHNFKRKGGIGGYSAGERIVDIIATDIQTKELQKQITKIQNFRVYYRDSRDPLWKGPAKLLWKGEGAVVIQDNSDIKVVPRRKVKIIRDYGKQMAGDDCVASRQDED

[2] = molecular target: T1, Human immunodeficiency virus type 1 integrase; assay: Inhibition of HIV1 integrase 3'-processing activity by gel-based assays
[3] = system: Human immunodeficiency virus 1; assay: Antiviral activity against HIV1 3B infected in human HeLa cells expressing CD4-LTR-beta-gal assessed as inhibition of viral replication after 3 days by reporter gene assay; type: functional, organism-based; settings: Human immunodeficiency virus 1, 3B, 72 h
[4] = system: HeLa; assay: Cytotoxicity against human HeLa cells expressing CD4-LTR-beta-gal after 24 hrs by ATPlite assay; type: cell-based
[5] = molecular target: Human immunodeficiency virus type 1 reverse transcriptase (Human immunodeficiency virus 1, UniProt Q72547); assay: Inhibition of HIV1 RNase H function of recombinant reverse transcriptase using an 18-nt 3'-fluorescein-labeled RNA annealed to complementary 18-nt 5'-dabsyl-labeled DNA as substrate after 10 mins by fluorescence spectrometer analysis
[6] = molecular target: Human immunodeficiency virus type 1 reverse transcriptase (Human immunodeficiency virus 1) (UniProt Q72547); assay: Inhibition of HIV1 polymerase function of reverse transcriptase up to 40 uM
[7] = in vitro; settings: human, HeLa cells expressing CD4-LTR-beta-gal
Description: Selectivity index, ratio of CC50 for human HeLa cells expressing CD4-LTR-beta-gal to EC50 for HIV1 3B

| IC50 [1] [µM] | IC50 [2] [µM] | EC50 [3] [µM] | SMILES | CC50 [4] [µM] | IC50 [5] [µM] | inhibition [6] | selectivity ratio [7] |
| --- | --- | --- | --- | --- | --- | --- | --- |
| 0.36 | 30 | > 50 | O=C(O)/C(O)=C/C(=O)c1cn(Cc2ccc(F)cc2)c2cc(N3CCSCC3)ccc2c1=O |  |  |  |  |
|  |  | > 50 | CN(C)c1ccc2c(=O)c(C(=O)/C=C(\O)C(=O)O)cn(Cc3ccc(F)cc3)c2c1 |  |  |  |  |
| 2.9 | 41 | > 50 | CCOC(=O)/C(O)=C/C(=O)c1cn(Cc2ccc(F)cc2)c2cc(N(C)C)ccc2c1=O |  |  |  |  |
| 0.1 | 8.5 | > 50 | CN1CCN(c2ccc3c(=O)c(C(=O)/C=C(\O)C(=O)O)cn(Cc4ccc(F)cc4)c3c2)CC1 |  |  |  |  |
| 0.17 | 17 | > 50 | CCOC(=O)/C(O)=C/C(=O)c1cn(Cc2ccc(F)cc2)c2cc(N3CCN(C(C)=O)CC3)ccc2c1=O |  |  |  |  |
| 2.1 | > 111 | 16.2 | CCOC(=O)/C(O)=C/C(=O)c1cn(Cc2ccc(F)cc2)c2cc(N3CCOCC3)ccc2c1=O | > 50 |  |  | > 3 |
| 24 | > 333 | 20.9 | CCOC(=O)/C(O)=C/C(=O)c1cn(Cc2ccc(F)cc2)c2cc(N3CCNCC3)ccc2c1=O | > 50 |  |  | > 2.4 |
|  |  | 0.0142 | COc1cc2c(cc1Cc1cccc(Cl)c1F)c(=O)c(C(=O)O)cn2[C@H](CO)C(C)C | > 50 |  |  |  |
| 0.21 | 23 | > 50 | CCN1CCN(c2ccc3c(=O)c(C(=O)/C=C(\O)C(=O)O)cn(Cc4ccc(F)cc4)c3c2)CC1 |  |  |  |  |
| 1.3 | 102 | 13.2 | CCOC(=O)/C(O)=C/C(=O)c1cn(Cc2ccc(F)cc2)c2cc(N3CCN(CCCCl)CC3)ccc2c1=O | > 50 |  |  | > 3.7 |
|  |  | > 50 | O=C(O)/C(O)=C/C(=O)c1cn(Cc2ccc(F)cc2)c2cc(N3CCNCC3)ccc2c1=O |  |  |  |  |

More lines, now with the values behind:

| SMILES | IC50 [1] [µM] | IC50 [2] [µM] | EC50 [3] [µM] | CC50 [4] [µM] | IC50 [5] [µM] | inhibition [6] | selectivity ratio [7] |
| --- | --- | --- | --- | --- | --- | --- | --- |
| CCOC(=O)/C(O)=C/C(=O)c1cn(Cc2ccc(F)cc2)c2cc(N3CCN(CC)CC3)ccc2c1=O |  |  |  | > 50 |  |  |  |
| O=C(O)/C(O)=C/C(=O)c1cn(Cc2ccc(F)cc2)c2cc(N3CCCC3)ccc2c1=O |  |  |  | > 50 | 5.1 | inactive |  |
| CCOC(=O)/C(O)=C/C(=O)c1cn(Cc2ccc(F)cc2)c2cc(N3CCN(C)CC3)ccc2c1=O |  |  |  | > 50 |  |  |  |
| O=C(O)/C(O)=C/C(=O)c1cn(Cc2ccc(F)cc2)c2cc(N3CCOCC3)ccc2c1=O | 0.08 | 13 | 26.3 | > 50 | 6.8 | inactive | > 1.9 |
| CC(=O)N1CCN(c2ccc3c(=O)c(C(=O)/C=C(\O)C(=O)O)cn(Cc4ccc(F)cc4)c3c2)CC1 |  |  |  | > 50 |  |  |  |
| O=C(O)/C(O)=C/C(=O)c1cn(Cc2ccc(F)cc2)c2cc(N3CCN(CCCCl)CC3)ccc2c1=O | 0.05 | 4.6 | > 50 |  | 5.7 | inactive |  |
| Cc1nnc(C(=O)NC(C)(C)c2nc(C(=O)NCc3ccc(F)cc3)c(O)c(=O)n2C)o1 |  |  |  | > 50 |  |  |  |
| CCOC(=O)/C(O)=C/C(=O)c1cn(Cc2ccc(F)cc2)c2cc(N3CCCC3)ccc2c1=O |  |  |  | > 50 |  |  |  |
